From a melting point compilation (Tetko et al.)

| Structure (SMILES) | melting point |
| --- | --- |
| CCc1ccc2c(CC(=O)O)coc2c1 | 82 to 84 °C |
| CCN(CC)C(C(N)=O)c1ccccc1 (stereo unspecified) | 141 to 143 °C |
| CCN(CC)Cc1csc(N)n1 | 64 to 66 °C |
| CNc1cnnc2ccccc12 | 232 to 234 °C |
| Cc1ccc(-c2nn(-c3ccccc3)cc2/C=C/C(=O)O)o1 | 238 to 240 °C |
| COc1ccc2c(c1)NC(=O)CO2 | 157 to 159 °C |
| CC1Cc2cc(S(N)(=O)=O)cc(Cl)c2O1 (stereo unspecified) | 174 to 176 °C |
| NC(=O)c1ccc(N)nn1 | 256 to 258 °C |
| Cn1cnnc1Sc1ccccc1N | 137 to 139 °C |
| Nc1c(Cl)ccc2nsnc12 | 89 to 91 °C |
| O=C(Nc1cnccn1)C1CCNCC1 | 131 to 133 °C |
| O=c1nc(S)[nH]nc1-c1cc(Cl)sc1Cl | 203 to 205 °C |
| Nc1ccc(S(N)(=O)=O)cc1F | 166 to 168 °C |
| O=C1CCCc2nc(-c3ccccc3F)sc21 | 153 to 155 °C |
| O=C(O)c1c(Cl)cc(C(F)(F)F)cc1Cl | 140 to 142 °C |
| O=C(O)CSc1cc(Cl)ccc1Cl | 129 to 131 °C |
| CCOC(=O)Nc1ccc(C(=O)O)cc1 | 170 to 172 °C |
| CC1CCCC(C)N1C(=O)COc1ccc(C(=O)O)cc1 (stereo unspecified) | 205 to 215 °C |
| COc1cc(NC(=O)Cc2cccs2)c(C(=O)O)cc1OC | 195 to 197 °C |
| O=C(C=NO)Nc1cccc(C(F)(F)F)c1 | 115 to 117 °C |
| CCn1ccnc1S | 78 to 80 °C |
| O=S(=O)(Cl)C=Cc1ccc(Cl)cc1 | 131 to 133 °C |
| O=C(NC1CCCCCC1)c1ccco1 | 99 to 101 °C |
| Cc1csc(=O)n1CCCC(=O)O | 97 to 99 °C |
| O=C(O)C1CCN(S(=O)(=O)c2cccnc2)CC1 | 237 to 239 °C |

| Structure (SMILES) | melting point |
| --- | --- |
| Nc1ncn(Cc2ccccc2)n1 | 130 to 132 °C |
| O=C(O)CNc1nccs1 | 261 to 263 °C |
| Clc1ccc(Cn2cncn2)cn1 | 61 to 63 °C |
| Oc1ccccc1-n1ccnc1 | 218 to 220 °C |
| Cc1nc(=O)c2cnn(-c3ccc([N+](=O)[O-])cc3)c2[nH]1 | 341 to 343 °C |
| COC(=O)c1ncon1 | 34 to 36 °C |
| CON(C)S(=O)(=O)c1cc(C(=O)O)ccc1Cl | 228 to 230 °C |
| CCOC(=O)c1cnc(N2CCNCC2)s1 | 73 to 75 °C |
| CCN1CCN(c2ccc(N)cc2)CC1 | 70 to 72 °C |
| CCc1onc(C)c1C(=O)O | 126 to 128 °C |
| N#CC1=C(C(=O)O)CCC1 | 108 to 110 °C |
| COc1ccc(S(=O)(=O)Cl)cc1C(=O)O | 142 to 144 °C |
| O=C(O)c1ccc(Oc2ccc(C(F)(F)F)cn2)cc1 | 218 to 220 °C |
| CC(NC(=O)c1ccoc1)C(=O)O (stereo unspecified) | 166 to 168 °C |
| O=C(O)c1sccc1-c1ccccc1 | 206 to 208 °C |
| Nc1ccc(CC(F)(F)F)cc1 | 46 to 48 °C |
| Nc1cc(F)ccc1N1CC(C(F)(F)F)OC1=O (stereo unspecified) | 119 to 121 °C |
| CC(=O)N1CCC(NC(=O)CCl)CC1 | 120 to 122 °C |
| Cc1ccc(S(=O)(=O)Cl)c(C)c1OCC(=O)O | 144 to 146 °C |
| Cc1ccc(-c2cnnc(N)n2)s1 | 300 to 302 °C |
| O=C(c1ccccc1)c1ccc(CBr)cc1 | 109 to 112 °C |
| COc1ccc(OC(C)C(=O)O)cc1 (stereo unspecified) | 91 to 93 °C |
| Cc1ccc(CNC(=O)C2CCNCC2)cc1F | 134 to 136 °C |
| Cc1ccc(S(=O)(=O)OCC2CCCO2)cc1 (stereo unspecified) | 43 to 45 °C |
| Cc1ccc(CC(=O)O)c(Cl)c1 | 129 to 131 °C |

| Structure (SMILES) | melting point |
| --- | --- |
| O=C(CCl)NC(=O)NCC(F)(F)F | 154 to 156 °C |
| O=C(O)Cc1csc(-c2ccoc2)n1 | 128 to 130 °C |
| O=C(O)c1cc(Br)nn1-c1ccc(F)cc1 | 177 to 179 °C |
| O=C(c1cc2ccccc2cc1O)N1CCOCC1 | 216 to 218 °C |
| Cc1ccc(-n2nc(-c3ccccc3)cc2N)c(C)c1 | 126 to 128 °C |
| O=C(Cl)c1cc([N+](=O)[O-])ccc1Br | 62 to 64 °C |
| O=C(O)c1ccc(S(=O)(=O)Cl)c(F)c1 | 188 to 190 °C |
| O=C(O)c1cc(Br)ccc1F | 179 to 182 °C |
| O=C(O)c1ccc(F)c(I)c1 | 169 to 171 °C |
| O=C1CCCc2cc(Br)ccc2N1 | 119 to 121 °C |
| CCOC(=O)C1CC(=O)NN1c1ncccc1Cl (stereo unspecified) | 135 to 137 °C |
| Cc1c(C(=O)O)oc2c1C(=O)CC(C)(C)C2 | 199 to 201 °C |
| O=C(O)CCCNc1ccc(C(F)(F)F)cn1 | 91 to 93 °C |
| Nc1nc2ccccc2n1CCCn1ccnc1 | 178 to 180 °C |
| Nc1ccc(S)c(Br)c1 | 94 to 96 °C |
| O=C(CSc1ccccc1C(=O)O)NCC1CCCCC1 | 118 to 120 °C |
| O=C(O)CCc1ccoc1 | 63 to 65 °C |
| O=C(c1ccccn1)c1cc2ccccc2o1 | 96 to 98 °C |
| CC(C)(C)c1nn(Cc2ccccc2)cc1C=O | 64 to 66 °C |
| NC(=S)c1ccc(Br)s1 | 169 to 171 °C |
| O=C(O)CNC(=O)c1cc2c(s1)CCC2 | 207 to 209 °C |
| O=Cc1cnc(-c2ccccn2)s1 | 149 to 151 °C |
| COC(=O)c1ccc(N)c(F)c1 | 111 to 113 °C |
| COC(=O)c1ccc2c(c1)NCC(=O)N2 | 252 to 254 °C |
| CC(C)c1nc(C=O)c2ccccn12 | 95 to 97 °C |

| Structure (SMILES) | melting point |
| --- | --- |
| CN(C)c1ncnc(Cl)c1C=O | 141 to 143 °C |
| C#Cc1nc2ccccc2s1 | 39 to 41 °C |
| Cc1c(NC(=S)Nc2c(C)n(C)n(-c3ccccc3)c2=O)c(=O)n(-c2ccccc2)n1C | 93 to 95 °C |
| O=C(O)CNC(=O)C=Cc1cccnc1 | 264 to 266 °C |
| Cc1cc(N)nc(N2CCOCC2)n1 | 102 to 104 °C |
| CCOC(=O)c1ccc(Br)c(S(=O)(=O)Cl)c1 | 93 to 95 °C |
| CN1CCN(c2ccc(CO)cc2F)CC1 | 87 to 89 °C |
| Nc1cc(-c2ccccc2)nc(N)n1 | 153 to 155 °C |
| O=C(O)C(Oc1ccc(F)cc1Br)c1ccccc1 (stereo unspecified) | 133 to 135 °C |
| CC(=O)N1CCC(C)(C(=O)O)C1 (stereo unspecified) | 120 to 122 °C |
| CC(O)c1cccc(O)c1 (stereo unspecified) | 112 to 114 °C |
| Cc1ccc2c(c1)c(C=O)c(C)n2C | 104 to 106 °C |
| CC(C)(C)OC(=O)NCc1cc[nH]n1 | 104 to 106 °C |
| NS(=O)(=O)c1cc(C(=O)O)cs1 | 194 to 196 °C |
| Cc1cc(N)cc2[nH]ncc12 | 179 to 181 °C |
| Cc1sc2[nH]c(=O)oc(=O)c2c1C | 199 to 201 °C |
| CN(C)C(=O)c1ccc(Cl)nc1 | 67 to 69 °C |
| CC(C)(CO)N1C(=O)c2ccccc2C1=O | 65 to 67 °C |
| CC1Oc2ccccc2N(CC(=O)O)C1=O (stereo unspecified) | 146 to 148 °C |
| C=CCNc1ncc(C(=O)OC)s1 | 109 to 111 °C |
| Cc1nn(C)cc1C=O | 46 to 48 °C |
| Nn1cnc2ccc(Br)cc2c1=O | 230 to 232 °C |
| O=C1NC(=O)C(c2cccc(Br)c2)N1 (stereo unspecified) | 185 to 187 °C |
| ClCc1nn(-c2ccccc2)c2c1CCC2 | 83 to 85 °C |
| COc1cc(-c2noc(CCl)n2)ccc1OC(F)F | 46 to 50 °C |

| Structure (SMILES) | melting point |
| --- | --- |
| Cn1cc([N+](=O)[O-])c(C(=O)O)n1 | 162 to 164 °C |
| O=c1[nH]c(S)nc2scc(-c3ccc(F)cc3)c12 | 200 to 202 °C |
| NCC1CCN(C(=O)c2ccccc2)CC1 | 70 to 72 °C |
| CS(=O)(=O)N(c1ccc(N)cc1Br)S(C)(=O)=O | 179 to 181 °C |
| CC(C)(C(=O)O)C(O)c1cccc(O)c1 (stereo unspecified) | 163 to 165 °C |
| O=C(O)CCN1C(=O)CCc2ccccc21 | 157 to 159 °C |
| O=C(CCl)NC1CCCCCCC1 | 82 to 84 °C |
| NC(C(=O)O)c1cccc(F)c1 (stereo unspecified) | 273 to 275 °C |
| O=C(O)c1ccccc1NS(=O)(=O)c1ccc(Cl)c(Cl)c1 | 143 to 147 °C |
| CC(=O)N(c1ccc(C(F)(F)F)cc1)c1nc(CCl)cs1 | 115 to 117 °C |
| O=[N+]([O-])c1cc(S(=O)(=O)Cl)c(Cl)cc1F | 41 to 43 °C |
| Cc1nn(C)c(C)c1S(N)(=O)=O | 213 to 215 °C |
| O=C(O)C1CCc2[nH]ncc2C1 (stereo unspecified) | 229 to 231 °C |
| O=C(O)c1cnc(-c2ncccn2)s1 | 217 to 219 °C |
| Nc1ccccc1-c1[nH]nc2c1CCC2 | 128 to 130 °C |
| Cc1nnc(Cl)n1-c1ccccc1 | 252 to 254 °C |
| CC(C)(C)Sc1ccc(C(N)=S)nc1 | 129 to 131 °C |
| CCOC(=O)CN(C)c1ccncc1[N+](=O)[O-] | 82 to 84 °C |
| O=C(O)CNC(=O)c1cc(F)cc(F)c1 | 154 to 156 °C |
| O=C(O)CCN1C(=O)COc2ccccc21 | 168 to 170 °C |
| Cc1cc(Cl)c2cc(OC(F)F)ccc2n1 | 81 to 83 °C |
| NC1(C(=O)NCC2CC2)CCCC1 | 64 to 66 °C |
| Nc1cccc(Oc2ncccn2)c1 | 125 to 127 °C |
| NC(CC(=O)NC1CCCC1)=NO | 119 to 121 °C |
| O=C(O)C1CCN(c2ccc(F)cc2)C1=O (stereo unspecified) | 145 to 147 °C |

| Structure (SMILES) | melting point |
| --- | --- |
| O=C(O)CCCOc1cccc2ccccc12 | 116 to 118 °C |
| CCOC(=O)c1cnc2c(cnn2C)c1Cl | 83 to 85 °C |
| COc1nc2cc(N)ccc2o1 | 123 to 125 °C |
| O=C(CCl)NC(=O)NC1CCS(=O)(=O)C1 (stereo unspecified) | 173 to 175 °C |
| Nc1cccc(Oc2ncc(Br)cn2)c1 | 92 to 94 °C |
| CC(=O)c1cnc2cc(C)nn2c1C | 144 to 146 °C |
| c1ccc(Cn2ccnc2)nc1 | 63 to 65 °C |
| CCN(CC)S(=O)(=O)c1cccc(-c2nnc(S)o2)c1 | 95 to 101 °C |
| COc1ccc(OCc2ccccn2)c(/C=C/C(=O)O)c1 | 177 to 179 °C |
| CS(=O)(=O)c1cc(Br)ccc1N | 129 to 131 °C |
| O=C(CCl)NCc1ccco1 | 81 to 83 °C |
| CCN(CC)Cc1ccc(C(=O)O)cc1 | 154 to 156 °C |
| O=C(O)C1CC12CCCc1ccccc12 (stereo unspecified) | 161 to 163 °C |
| O=C(c1ccc(F)cc1)c1cnc2ccccc2c1 | 89 to 91 °C |
| O=C(O)CC(O)c1cc(Cl)cc(Cl)c1 (stereo unspecified) | 198 to 200 °C |
| CC1CCCC(C)N1C(=O)c1cc(Cl)ccc1N (stereo unspecified) | 169 to 171 °C |
| Cc1nnc(-c2ccccc2C(=O)O)o1 | 158 to 160 °C |
| CC(O)c1ccc2c(c1)Nc1ccccc1S2 (stereo unspecified) | 149 to 151 °C |
| Cc1nn(C)c2ncc(C=O)cc12 | 107 to 109 °C |
| CN(C=O)c1ccc(C(=O)CCl)cc1 | 96 to 98 °C |
| NC(=O)CCNCc1ccccc1 | 164 to 166 °C |
